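Interpolation was linear, between the two tested concentrations surrounding the appropriate level; five concentrations were tested over 48 hours in 96-well plates. Abbreviation: GI50, concentration required for 50% inhibition of growth.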 Activity calls are given as the source filed them. No stated cut-off is given here; in the data, active = GI50 up to about 1.1 µM and inactive = higher.
How the values were obtained:
Test in all cases: inhibition of tumour cell growth, NCI panel, 48 h
SF-539 = tested on: SF-539
SN12C = tested on: SN12C
SNB-19 = tested on: SNB-19
NCI-H23 = tested on: NCI-H23
NCI-H522 = tested on: NCI-H522
CCRF-CEM = tested on: CCRF-CEM
EKVX = tested on: EKVX
UACC-257 = tested on: UACC-257
RPMI-8226 = tested on: RPMI-8226
HCT-15 = tested on: HCT-15
MOLT-4 = tested on: MOLT-4
HCC 2998 = tested on: HCC 2998
HL-60 = tested on: HL-60
SW-620 = tested on: SW-620
NCI-H460 = tested on: NCI-H460
SF-268 = tested on: SF-268
SK-OV-3 = tested on: SK-OV-3
U-251 = tested on: U-251
KM12 = tested on: KM12
OVCAR-8 = tested on: OVCAR-8

Row | Compound | GI50 (SF-539) | GI50 (SN12C) | GI50 (SNB-19) | GI50 (NCI-H23) | GI50 (NCI-H522) | GI50 (CCRF-CEM) | GI50 (EKVX) | GI50 (UACC-257) | GI50 (RPMI-8226) | GI50 (HCT-15) | GI50 (MOLT-4) | GI50 (HCC 2998) | GI50 (HL-60) | GI50 (SW-620) | GI50 (NCI-H460) | GI50 (SF-268) | GI50 (SK-OV-3) | GI50 (U-251) | GI50 (KM12) | GI50 (OVCAR-8)
1 | C/C(=C\c1ccc(Cl)cc1)C(C)(C)C(=O)O | > 100 µM (inactive) | > 100 µM (inactive) | > 100 µM (inactive) | > 100 µM (inactive) | > 100 µM (inactive) | 52.5 µM (inactive) | > 100 µM (inactive) | > 100 µM (inactive) | > 100 µM (inactive) | > 100 µM | > 100 µM (inactive) | > 100 µM (inactive) | > 100 µM (inactive) | > 100 µM (inactive) | > 100 µM (inactive) | > 100 µM (inactive) | > 100 µM (inactive) | > 100 µM (inactive) | > 100 µM (inactive) | > 100 µM (inactive)
2 | COc1ccc([I+]c2ccc(OC)cc2)cc1 | > 78.3 µM (inactive) | 40.8 µM (inactive) | 96.8 µM (inactive) | 13 µM (inactive) | > 61.1 µM (inactive) | 74.5 µM (inactive) | > 75 µM (inactive) | 11.6 µM (inactive) | 44.1 µM (inactive) | > 22.2 µM | > 100 µM (inactive) | > 100 µM (inactive) | 27 µM (inactive) | > 91.8 µM (inactive) | 4.47 µM (inactive) | > 84.5 µM (inactive) | > 100 µM (inactive) | 34 µM (inactive) | 28.9 µM (inactive) | 22.1 µM (inactive)
3 | O=C(O)CCCCCCCCC(=O)O [SEBACIC ACID] | > 79.3 µM (inactive) | > 321 µM (inactive) | 108 µM (inactive) | 79.3 µM (inactive) | > 500 µM (inactive) | 300 µM (inactive) | 50 µM (inactive) | 108 µM (inactive) | > 500 µM (inactive) | 99.1 µM | > 500 µM (inactive) | 50 µM (inactive) | 316 µM (inactive) | > 500 µM (inactive) | 108 µM (inactive) | > 500 µM (inactive) | 50 µM (inactive) | > 79.3 µM (inactive) | > 500 µM (inactive) | 108 µM (inactive)
4 | CC(NNC(=O)c1cc[n+]([BH2-]C#N)cc1)c1ccc(F)cc1 (stereo not given) | > 100 µM (inactive) | > 100 µM (inactive) | > 100 µM (inactive) | > 100 µM (inactive) | > 100 µM (inactive) | > 100 µM (inactive) | > 100 µM (inactive) | > 100 µM (inactive) | > 100 µM (inactive) | > 100 µM | > 100 µM (inactive) | > 100 µM (inactive) | > 100 µM (inactive) | > 100 µM (inactive) | > 100 µM (inactive) | > 100 µM (inactive) | > 100 µM (inactive) | > 100 µM (inactive) | > 100 µM (inactive) | > 100 µM (inactive)
5 | Clc1ncc(C(Cl)(Cl)Cl)nc1-c1ccccc1 | 2.63 µM (inactive) | 2.86 µM (inactive) | 1.69 µM (inactive) | 2.24 µM (inactive) | 2.52 µM (inactive) | 14.6 µM (inactive) | 2.29 µM (inactive) | 2.14 µM (inactive) | 0.598 µM (active) | 1.21 µM | 4.75 µM (inactive) | 1.52 µM (inactive) | 2.7 µM (inactive) | 4.21 µM (inactive) | 3.01 µM (inactive) | 2.19 µM (inactive) | 11.9 µM (inactive) | 1.84 µM (inactive) | 1.82 µM (inactive) | 2.57 µM (inactive)

— ChEMBL document CHEMBL1201862, “PubChem BioAssay data set” (2004)
